Legend:
Type in all cases: functional
Rattus norvegicus [1] = species: Rattus norvegicus; assay: Dose required to inhibit gastric secretory activity in pylorus lygated rats; conditions: Stomach
Rattus norvegicus [2] = assay: Gastric antisecretory activity at the dose of 100 mg/kg in pylorus lygated rats
Rattus norvegicus [3] = species: Rattus norvegicus; assay: Dose required to inhibit ulcer induced by stress in rats

Compound | ED50 (Rattus norvegicus [1]) [mg/kg] | inhibition in vivo at 100 mg/kg (Rattus norvegicus [2]) [%] | ED50 (Rattus norvegicus [3]) [mg/kg]
CCC/N=C(/NC#N)NCCCn1nc(-c2ccccc2)ccc1=O | 100 | 52.9 | –
C/N=C(/NC#N)NCCCCCCn1nc(-c2ccccc2)ccc1=O | > 100 | 31.7 | > 100
O=c1ccc(-c2ccccc2)nn1CCCC/N=C(\S)Nc1ccc(F)cc1 | > 100 | 45.6 | –
CC/N=C(\S)NCCn1nc(-c2ccccc2)ccc1=O | – | 8.1 | –
C/N=C(\S)NCCCCn1nc(-c2ccccc2)ccc1=O | 28.9 | 87.1 | 17.3
N#CNC(=N)NCCn1nc(-c2ccccc2)ccc1=O | – | 18.5 | –
CC/N=C(/NC#N)NCCCn1nc(-c2ccccc2)c(C)cc1=O | – | 0.2 | –
CC/N=C(/NC#N)NCCCn1nc(-c2ccccc2)cc(C)c1=O | – | 23.5 | –
C/N=C(/NC#N)NCCCCn1nc(-c2ccc(C)cc2)ccc1=O | > 100 | 45.7 | –
O=c1ccc(-c2ccccc2)nn1CCCCNC(=S)Nc1cccc2ccccc12 | > 100 | 42.3 | –
C/N=C(/NC#N)NCCCCn1nc(Nc2ccccc2)ccc1=O | > 100 | 24.4 | –
C/N=C(/NC#N)NCCCCn1nc(N(C)C)ccc1=O | > 100 | 26.3 | –
CC/N=C(/NC#N)NCCCCn1nc(-c2ccccc2)ccc1=O | 92 | 58.8 | 60.7
C/N=C(\S)NCCCn1nc(C)ccc1=O | – | -8.2 | –
N#CN/C(=N\CCCCn1nc(-c2ccccc2)ccc1=O)NCCc1ccccc1 | – | 0.3 | –
C/N=C(\S)NCCn1nc(C)ccc1=O | – | 6 | –
C/N=C(\S)NCCCCn1nc(C)ccc1=O | > 100 | 44.5 | –
C/N=C(/NC#N)NCCCCCn1nc(-c2ccccc2)cc(C)c1=O | > 100 | 33.8 | –
CC/N=C(\S)NCCCCCCn1nc(-c2ccccc2)ccc1=O | – | -5.6 | –
CC(C)(C)/N=C(\S)NCCCCn1nc(-c2ccccc2)ccc1=O | > 100 | 33.6 | –
C/N=C(/NC#N)NCCCn1nc(-c2ccccc2)cc(C)c1=O | > 100 | 42.8 | –

Compound | ED50 (Rattus norvegicus [1]) [mg/kg] | inhibition in vivo at 100 mg/kg (Rattus norvegicus [2]) [%] | ED50 (Rattus norvegicus [3]) [mg/kg]
CC/N=C(/NC#N)NCCCn1nc(-c2ccccc2)ccc1=O | 78.3 | 62.9 | 88.5
C/N=C(/NC#N)NCCCn1nc(-c2ccccc2)c(C)cc1=O | – | 17.2 | –
O=c1ccc(-c2ccccc2)nn1CCCC/N=C(\S)Nc1ccc(S(=O)(=O)O)cc1 | – | 25.1 | –
O=c1ccc(-c2ccccc2)nn1CCNC(=S)Nc1ccccc1 | – | -3.4 | –
C/N=C(/NC#N)NCCCCn1nc(-c2ccccc2)c(C)cc1=O | > 100 | 46.4 | –
C/N=C(/NC#N)NCCCCn1nc(N2CCOCC2)ccc1=O | – | -10.2 | –
C/N=C(\S)NCCCn1nc(-c2ccccc2)ccc1=O | > 100 | 38.9 | 58
C/N=C(\S)NCCCCCn1nc(C)ccc1=O | – | 3.2 | –
C/N=C(/NC#N)NCCCCCn1nc(-c2ccccc2)c(C)cc1=O | > 100 | 28.5 | –
CC/N=C(\S)NCCCCn1nc(-c2ccccc2)ccc1=O | 37.2 | 67.7 | 19.8
C/N=C(/NC#N)NCCn1nc(-c2ccccc2)ccc1=O | – | -3.5 | –
C#CCN/C(=N/CCCn1nc(-c2ccccc2)ccc1=O)NC#N | – | -11.8 | –
CNC(=S)CCCCCn1nc(-c2ccccc2)ccc1=O | 23.8 | 90.3 | 18.3
CC/N=C(/NC#N)NCCCCCn1nc(-c2ccccc2)ccc1=O | 100 | 48.2 | 60.3
CN(C)/C(=N/CCn1nc(-c2ccccc2)ccc1=O)NC#N | 62.8 | 63.9 | > 100
CN/C(=N/CCCCn1nc(-c2ccc(OC)cc2)ccc1=O)NC#N | > 100 | 48.5 | –
C/N=C(\S)N(C)CCCCn1nc(-c2ccccc2)ccc1=O | – | 17.5 | –
CCC/N=C(/NC#N)NCCCCn1nc(-c2ccccc2)ccc1=O | > 100 | 26.3 | –
CC/N=C(/NC#N)NCCCCn1nc(-c2ccccc2)c(C)cc1=O | > 100 | 38.8 | –
C/N=C(\S)NCCCCCn1nc(-c2ccccc2)ccc1=O | 35.3 | 68.9 | 42.1
C/N=C(/NC#N)NCCCCCn1nc(C)ccc1=O | – | 14.9 | –

From ChEMBL document CHEMBL1122344, “Pyridazinones. 2. Synthesis and antisecretory and antiulcer activities of thiourea and 2-cyanoguanidine derivatives” (1983)
